According to US10668020B1, “Pullulan based vinpocetine tablets, lyoplant-tabs, as a buccal solid dosage form” (King Abdulaziz University, priority 2019, dated 2020):
Converted amounts (≈) assume the structure as drawn.

Legend:
[1] = Equilibrium saturation solubility and solubilization efficiency; format: physicochemical; details: distilled water, thermodynamic from solid; pure drug, water at 25° C.; read-out: solubility of VPN in water
Experimental: To study the effects of the prepared solid dispersions on the solubility of VPN, the equilibrium solubility was determined as previously reported. (Ahmed et al. Pharm Dev Technol. 2011; 16 (5):497-510). An excess amount of either pure drug or the prepared solid dispersions were added to screw-capped vials containing 10 mL of distilled water. The vials were placed in a thermostatically controlled shaking water bath (Model 1031; GFL Corporation. Burgwedel, Germany) at 25±0.5° C. for 48 h. […] Aliquots withdrawn were filtered through a 0.22 μm pore-size Millipore filter and assayed for drug content using high performance liquid chromatography (HPLC) method Ding et al. Asian J Pharm Sci. 2015; 10:114-120. doi:10.1016/j.ajps.2014.08.008), with slight modifications. An isocratic HPLC method was performed using Agilent 1200 series equipped with UV diode array detector. A reversed phase C18 analytical column (4×250 mm, 5 μm; Thermo Fischer Scientific) was used. The mobile phase was composed of a mixture of methanol and 0.05 ammonium acetate buffer of pH 5.5, 80:20 (v/v). The flow rate of the mobile phase was 1 mL/min, the injection volume was 20 μL and the detection wave length was 273 nm. […]
The solubility of vinpocetine, in the prepared solid dispersions, was compared to the intrinsic drug solubility and the resulting ratios of solubilization efficiency (solubility enhancement) were calculated. […]

[2] = background statement; cited from earlier work
[3] = Phase solubility study and thermodynamic parameter of solubility in aqueous PVP-VA64 solution; format: physicochemical
Experimental: An excess amount of pure VPN was added separately into screw-capped vials containing 10 mL of aqueous polyvinyl pyrrolidone vinyl acetate (PVP-VA64) solution (0-10% w/v). The vials were sealed and shaken in a water bath at 37° C. for 72 h. Aliquots (n=3) from each vial were filtered through a 0.22 μm pore-size Millipore filter, and the filtrates were assayed by HPLC. The change in the solubility of VPN resulting from the addition of different PVP-VA-64 concentrations was used to construct a phase-solubility plot and to evaluate the stoichiometry and the stability constant of complexation (Kst), which exemplifies the strength of the interaction and stability of the complex formed.
Calculation of the apparent stability constant, Kst, was achieved from the phase solubility diagram according to the equation described by Higuchi and Connors (Adv Anal Chem Instrum. 1965; 4:117-210), based on the assumption that 1:1 complex was initially formed.
[formula] In the equation, “So” represents the drug solubility in the absence of the studied polymer (the intercept of the phase solubility diagram constructed).
To evaluate the solubilizing efficiency of the studied polymer for the drug, the complexation efficiency (CE) was determined. It was calculated according to the following equation: CE=So K1:1=slope/(1-slope).
The Gibbs free energy (ΔG°tr) for the transfer of VPN from pure water to aqueous solutions of PVP-VA-64 was calculated using the following equation: ΔG°tr=−2.303 RT Log (Sc/So) where Sc/So is the ratio of the molar drug solubility in an aqueous solution of PVP-VA-64 to that of pure water. R is the gas rate constant ([…]) and T is the temperature in Kelvin at which the study was conducted. The Gibbs free energy can also be referred to as the thermodynamic potential that is minimized when a system reaches chemical equilibrium from an initial state to a final state at constant pressure and temperature. Dissolution of the Prepared Solid Dispersion

[4] = In vitro dissolution of the prepared solid dispersion (USP apparatus II); format: physicochemical; details: simulated intestinal fluid pH 6.8, 37° C.
Experimental: An in vitro dissolution study of the pure drug and the vinpocetin-PVP-VA64 inclusion complex (equivalent to 5 mg VPN) was performed in triplicate, using the United States Pharmacopeia (USP) dissolution test apparatus II paddle type, DT 700 LH device, Erweka GmbH DT 700 (Heusenstamm, Germany) at 37° C. for 2 h, with a stirring rate of 50 rpm, in 900 mL of enzyme-free simulated intestinal fluid (pH 6.8). Aliquots were collected at 5, 10, 15, 20, 25, 30, 45, 60, 90 and 120 min, with immediate replacement of an equal volume of fluid, and the collected samples were filtered through a 0.22 μm pore-size Millipore filter and assayed for drug content using high performance liquid chromatography (HPLC). From the dissolution profile curve constructed, DP5min, DP30min and DP120min, the percent of drug dissolved within 5, 30 and 120 minutes, respectively, were estimated. Also, the dissolution efficiency within 10 and 120 minutes, (DE10min) and (DE120min), respectively and, the mean dissolution time were calculated. For each formulation, the dissolution efficiency was determined as the percent ratio of area under the dissolution profile curve up to the time, t, to that of the area of the rectangle described by 100% dissolution at the same time.

[5] = weak basic drug; cited from earlier work

SMILES: CCOC(=O)C1=C[C@]2(CC)CCCN3CCc4c(n1c1ccccc41)[C@@H]32 [Vinpocetine]
- solubility at 48 h [1]: 2.31 µg/mL (≈ 6.59 µM)
- elimination half-life [2]: 1 to 2 h
- first pass metabolism (metabolism in liver) [2]: 75%
- ΔG°tr ([3]; 1% polymeric solution (PVP-VA-64)): -1.144722 kcal/mol
- ΔG°tr ([3]; 2% polymeric solution (PVP-VA-64)): -1.513035 kcal/mol
- ΔG°tr ([3]; 3% polymeric solution (PVP-VA-64)): -1.766491 kcal/mol
- ΔG°tr ([3]; 4% polymeric solution (PVP-VA-64)): -2.010924 kcal/mol
- ΔG°tr ([3]; 5% polymeric solution (PVP-VA-64)): -2.097426 kcal/mol
- ΔG°tr ([3]; 6% polymeric solution (PVP-VA-64)): -2.189169 kcal/mol
- ΔG°tr ([3]; 7% polymeric solution (PVP-VA-64)): -2.315229 kcal/mol
- ΔG°tr ([3]; 8% polymeric solution (PVP-VA-64)): -2.413399 kcal/mol
- ΔG°tr ([3]; 9% polymeric solution (PVP-VA-64)): -2.456587 kcal/mol
- ΔG°tr ([3]; 10% polymeric solution (PVP-VA-64)): -2.547512 kcal/mol
- type of complexation (phase solubility profile) ([3]; VPN with PVP-VA-64): AP-type complexation
- complexation efficiency CE ([3]; VPN with PVP-VA-64, 37° C.): 0.0014
- stability constant Kst ([3]; VPN with PVP-VA-64, 37° C., 1:1 complex assumed): 7 mL/mg
- DE120, dissolution efficiency within 120 minutes [4]: 18.67±3.73%
- DE10min, dissolution efficiency within 10 minutes [4]: 0.428±0.159%
- DP5min, percent of drug dissolved within 5 minutes ([4]; 50 rpm): 5.62±2.45%
- DP30min, percent of drug dissolved within 30 minutes ([4]; 50 rpm): 16.46±3.58%
- DP120min, percent of drug dissolved within 120 minutes ([4]; 50 rpm): 22.41±6.04%
- pKa [5]: 7.31
